Experimental data as given in ChEMBL document CHEMBL1641486, “Synthesis of 3'-azido-3'-deoxythymidine (AZT)--Cinchona alkaloid conjugates via click chemistry: Toward novel fluorescent markers and cytostatic agents” (2011).
≈ marks a conversion by molar mass, not a printed value.

System: KB
Assay: Cytotoxicity against human KB cells assessed as inhibition of protein biosynthesis
Type: functional
Details: read-out: ED50 (the source's name)

| Structure (SMILES) | EC50 [µg/mL] |
| --- | --- |
| C=CC1CN2CCC1C[C@H]2[C@H](OCc1cn([C@H]2C[C@H](n3cc(C)c(=O)[nH]c3=O)O[C@@H]2CO)nn1)c1ccnc2ccc(OC)cc12 (some centres undefined) | 2.1 (≈ 3.33 µM) |
| C=CC1CN2CCC1C[C@@H]2[C@@H](OCc1cn([C@H]2C[C@H](n3cc(C)c(=O)[nH]c3=O)O[C@@H]2CO)nn1)c1ccnc2ccccc12 (some centres undefined) | > 100 |
| C=CC1CN2CCC1C[C@@H]2[C@@H](OCc1cn([C@H]2C[C@H](n3cc(C)c(=O)[nH]c3=O)O[C@@H]2CO)nn1)c1ccnc2ccc(OC)cc12 (some centres undefined) | 3.9 (≈ 6.19 µM) |
| Nc1ccn([C@@H]2O[C@H](CO)[C@@H](O)[C@@H]2O)c(=O)n1 [CYTARABINE] | 0.99 (≈ 4.07 µM) |
| COc1ccc2nccc([C@@H](O)[C@@H]3CC4CCN3CC4c3cn([C@H]4C[C@H](n5cc(C)c(=O)[nH]c5=O)O[C@@H]4CO)nn3)c2c1 (some centres undefined) | 1.3 (≈ 2.2 µM) |
| Cc1cn([C@H]2C[C@H](n3cc(C4CN5CCC4C[C@@H]5[C@@H](O)c4ccnc5ccccc45)nn3)[C@@H](CO)O2)c(=O)[nH]c1=O (some centres undefined) | 21 (≈ 37.5 µM) |
| C=CC1CN2CCC1C[C@H]2[C@H](OCc1cn([C@H]2C[C@H](n3cc(C)c(=O)[nH]c3=O)O[C@@H]2CO)nn1)c1ccnc2ccccc12 (some centres undefined) | > 100 |
| Cc1cn([C@H]2C[C@H](n3cc(C4CN5CCC4C[C@H]5[C@H](O)c4ccnc5ccccc45)nn3)[C@@H](CO)O2)c(=O)[nH]c1=O (some centres undefined) | 11.6 (≈ 20.7 µM) |
| COc1ccc2nccc([C@H](O)[C@H]3CC4CCN3CC4c3cn([C@H]4C[C@H](n5cc(C)c(=O)[nH]c5=O)O[C@@H]4CO)nn3)c2c1 (some centres undefined) | 12 (≈ 20.4 µM) |
